Reference: US9328374B2, “Selective culture medium and method for detecting carbapenem-resistant bacteria in a test sample” (Institut National de la Sante et de la Recherche Medicale …, priority 2011, dated 2016)

How the values were obtained:
E. cloacae = assay: MIC of imipenem, ertapenem and meropenem; type: cell-based, Enterobacter cloacae
enterobacterial isolates = assay: MIC of imipenem, ertapenem and meropenem (groups of isolates, other species); type: cell-based, Enterobacteriaceae
C. freundii = assay: MIC of imipenem, ertapenem and meropenem; type: cell-based, Citrobacter freundii
E. coli = assay: MIC of imipenem, ertapenem and meropenem; type: cell-based, Escherichia coli

C[C@@H](O)[C@H]1C(=O)N2C(C(=O)O)=C(SCCN=CN)C[C@H]12 [IPM, imipenem]
MIC (E. cloacae; E. cloacae 501, OXA-48 + TEM-1 + CTX-M-15): 1 µg/mL | MIC (E. cloacae; E. cloacae 1012, TEM-1 + SHV-12, non-carbapenemase producer): 0.19 µg/mL | MIC (E. cloacae; E. cloacae 1019, TEM-1, non-carbapenemase producer, overexpressed AmpC): 0.25 µg/mL | MIC (E. cloacae; E. cloacae 1027, TEM-1 + CTX-M-15, non-carbapenemase producer): 0.19 µg/mL | MIC (E. cloacae; E. cloacae 1072, TEM-1 + OXA-1, non-carbapenemase producer, overexpressed AmpC): 0.38 µg/mL | MIC (E. cloacae; E. cloacae 5434 (wild type)): 0.38 µg/mL | MIC (E. cloacae; E. cloacae 5434, (wild type), non-carbapenemase producer): 0.38 µg/mL | MIC (E. cloacae; E. cloacae 7725, (wild type), non-carbapenemase producer): 0.19 µg/mL | MIC (E. cloacae; E. cloacae 7746, (wild type), non-carbapenemase producer): 0.38 µg/mL | MIC (E. cloacae; E. cloacae 10111 (TEM-1 + CTX-M-15)): 0.5 µg/mL | MIC (E. cloacae; E. cloacae 10111, TEM-1 + CTX-M-15, non-carbapenemase producer, overexpressed AmpC): 0.5 µg/mL | MIC (E. cloacae; E. cloacae 1008029, VIM-1+ CTX-M-3): >32 µg/mL | MIC (E. cloacae; E. cloacae 1008079, IMP-1): 8 µg/mL | MIC (E. cloacae; E. cloacae 1008187, IMP-1 + CTX-M-15): 8 µg/mL | MIC (E. cloacae; E. cloacae (KPC-2)): 4 µg/mL | MIC (E. cloacae; E. cloacae ARF (overexpressed AmpC)): 0.12 µg/mL | MIC (E. cloacae; E. cloacae ARF, Overexpressed AmpC, non-carbapenemase producer): 0.12 µg/mL | MIC (E. cloacae; E. cloacae AZA (overexpressed AmpC)): 0.12 µg/mL | MIC (E. cloacae; E. cloacae AZA, Overexpressed AmpC, non-carbapenemase producer): 0.12 µg/mL | MIC (E. cloacae; E. cloacae BEU, OXA-48 + TEM-1 + CTX-M-15 + SHV-12): 0.5 µg/mL | MIC (E. cloacae; E. cloacae BLA (overexpressed AmpC)): 0.12 µg/mL | MIC (E. cloacae; E. cloacae BLA, Overexpressed AmpC, non-carbapenemase producer): 0.12 µg/mL | MIC (E. cloacae; E. cloacae CFVL, KPC-2 + TEM-3): 4 µg/mL | MIC (E. cloacae; E. cloacae CLO (CTX-M-15)): 0.12 µg/mL | MIC (E. cloacae; E. cloacae CLO, CTX-M-15, non-carbapenemase producer): 0.12 µg/mL | MIC (E. cloacae; E. cloacae CON (overexpressed AmpC)): 0.12 µg/mL | MIC (E. cloacae; E. cloacae CON, Overexpressed AmpC, non-carbapenemase producer): 0.25 µg/mL | MIC (E. cloacae; E. cloacae CVB (VEB-1)): 0.12 µg/mL | MIC (E. cloacae; E. cloacae CVB, VEB-1, non-carbapenemase producer): 0.12 µg/mL | MIC (E. cloacae; E. cloacae HMG, KPC-2 + TEM-1): 24 µg/mL | MIC (E. cloacae; E. cloacae HPTU (KPC-2 + TEM-1 + SHV-11)): 2 µg/mL | MIC (E. cloacae; E. cloacae HPTU, KPC-2 + TEM-1 + SHV-11): 2 µg/mL | MIC (E. cloacae; E. cloacae IR38 (NDM-1 + CTX-M-15)): 2 µg/mL | MIC (E. cloacae; E. cloacae IR38, NDM-1 + CTX-M-15): 2 µg/mL | MIC (E. cloacae; E. cloacae KAR, VIM-1+ SHV-70): 1 µg/mL | MIC (E. cloacae; E. cloacae TAW (IMP-8 + SHV-12)): 0.75 µg/mL | MIC (E. cloacae; E. cloacae TAW, IMP-8 + SHV-12): 0.75 µg/mL | MIC (E. cloacae; E. cloacae TUR (OXA-48 + SHV-5)): 0.5 µg/mL | MIC (E. cloacae; E. cloacae TUR, OXA-48 + SHV-5): 0.5 µg/mL | MIC (E. cloacae; E. cloacae TWA, IMP-8): 1.5 µg/mL | MIC (E. cloacae; strain E. cloacae 10111, TEM-1 + CTX-M-15, non-carbapenemase producer): 0.5 µg/mL | MIC (E. cloacae; strain E. cloacae BLA, Overexpressed AmpC, non-carbapenemase producer): 0.12 µg/mL | MIC (E. cloacae; strain E. cloacae CLO, CTX-M-15, non-carbapenemase producer): 0.12 µg/mL | MIC (E. cloacae; strain E. cloacae CON, Overexpressed AmpC, non-carbapenemase producer): 0.12 µg/mL | MIC (E. cloacae; strain E. cloacae CVB, VEB-1, non-carbapenemase producer): 0.12 µg/mL | MIC (E. cloacae; strain E. cloacae HPTU, KPC-2 + TEM-1 + SHV-11): 2 µg/mL | MIC (E. cloacae; strain E. cloacae TAW, IMP-8 + SHV-12): 0.75 µg/mL | MIC (E. cloacae; strain E. cloacae TUR, OXA-48 + SHV-5): 0.5 µg/mL | MIC (enterobacterial isolates; S. marcescens 0911033, IMP-1): >32 µg/mL | MIC (enterobacterial isolates; S. marcescens 1008091, VIM-1+ CTX-M-15): >32 µg/mL | MIC (enterobacterial isolates; S. marcescens C7052, KPC-2 + TEM-1 + SHV-12): >32 µg/mL | MIC (enterobacterial isolates; S. marcescens D6403, KPC-2 + TEM-1): >32 µg/mL | MIC (C. freundii; C. freundii 1003, CTX-M-15 + TEM-1, non-carbapenemase producer): 0.38 µg/mL | MIC (C. freundii; C. freundii 7767 (wild type)): 0.25 µg/mL | MIC (C. freundii; C. freundii 7767, (wild type), non-carbapenemase producer): 0.25 µg/mL | MIC (C. freundii; C. freundii 10107 (TEM-1 + SHV-12)): 0.38 µg/mL | MIC (C. freundii; C. freundii 10107, TEM-1 + SHV-12, non-carbapenemase producer): 0.38 µg/mL | MIC (C. freundii; C. freundii 10135 (CTX-M-15)): 0.38 µg/mL | MIC (C. freundii; C. freundii 10135, CTX-M-15, non-carbapenemase producer): 0.38 µg/mL | MIC (C. freundii; C. freundii MAU (Overexpressed AmpC + TEM-3)): 1 µg/mL | MIC (C. freundii; C. freundii MAU, Overexpressed AmpC + TEM-3, non-carbapenemase producer): 1 µg/mL | MIC (C. freundii; C. freundii STE (NDM-1 + OXA-1 + OXA-9 + OXA-10 + CTX-M-15 + TEM-1)): >32 µg/mL | MIC (C. freundii; C. freundii STE, NDM-1 + TEM-1 + CTX-M-15 + VIM-4 + OXA-1 + OXA-9 + OXA-10 + OXA-181): >32 µg/mL | MIC (C. freundii; strain C. freundii 10107, TEM-1 + SHV-12, non-carbapenemase producer): 0.38 µg/mL | MIC (C. freundii; strain C. freundii 10135, CTX-M-15, non-carbapenemase producer): 0.38 µg/mL | MIC (C. freundii; strain C. freundii MAU, Overexpressed AmpC + TEM-3, non-carbapenemase producer): 1 µg/mL | MIC (E. coli; E. coli 1008 (TEM-1 + CTX-M-1)): 0.19 µg/mL | MIC (E. coli; E. coli 1008, CTX-M-1 + TEM-1, non-carbapenemase producer): 0.19 µg/mL | MIC (E. coli; E. coli 1020, CTX-M-1 + TEM-1, non-carbapenemase producer): 0.19 µg/mL | MIC (E. coli; E. coli 1023, CTX-M-2 + TEM-1, non-carbapenemase producer): 0.12 µg/mL | MIC (E. coli; E. coli 1033, CTX-M-15, non-carbapenemase producer): 0.19 µg/mL | MIC (E. coli; E. coli 1034 (TEM-1 + SHV-38)): 0.19 µg/mL | MIC (E. coli; E. coli 1034, TEM-1 + SHV-38, non-carbapenemase producer): 0.19 µg/mL | MIC (E. coli; E. coli 1048 (TEM-1 + SHV-2a)): 0.19 µg/mL | MIC (E. coli; E. coli 1048, TEM-1 + SHV-2a, non-carbapenemase producer): 0.19 µg/mL | MIC (E. coli; E. coli 1082 (TEM-1)): 0.19 µg/mL | MIC (E. coli; E. coli 1082, TEM-1, non-carbapenemase producer): 0.19 µg/mL | MIC (E. coli; E. coli 1092 (OXA-1)): 0.12 µg/mL | MIC (E. coli; E. coli 1092, OXA-1, non-carbapenemase producer): 0.12 µg/mL | MIC (E. coli; E. coli 6252, (wild type), non-carbapenemase producer): 0.12 µg/mL | MIC (E. coli; E. coli 6367 (wild type)): 0.19 µg/mL | MIC (E. coli; E. coli 6367, (wild type), non-carbapenemase producer): 0.19 µg/mL | MIC (E. coli; E. coli 10121 (CTX-M-2)): 0.19 µg/mL | MIC (E. coli; E. coli 10121, CTX-M-2, non-carbapenemase producer): 0.19 µg/mL | MIC (E. coli; E. coli 10122, CTX-M-1 + TEM-1, non-carbapenemase producer): 0.19 µg/mL | MIC (E. coli; E. coli 0404018, VIM-1+ CMY-6): 3 µg/mL | MIC (E. coli; E. coli 1008077, VIM-1+ TEM-1 + CTX-M-15): >32 µg/mL | MIC (E. coli; E. coli 1108013, IMP-1 + TEM-1): 0.5 µg/mL
